Results taken from patent US8809331B2 (Genentech, Inc., priority 2011, dated 2014).

Target: T1, LRRK2 (Homo sapiens, UniProt Q5S007, G2019S)
T1 construct: purchased Invitrogen PV4882
Test: In Vitro LRRK2 LabChip Assay (LRRK2 Ki)
Format: biochemical
Conditions: Table 5 compounds (formula I)

T1 sequence (Q5S007 whole entry G2019S): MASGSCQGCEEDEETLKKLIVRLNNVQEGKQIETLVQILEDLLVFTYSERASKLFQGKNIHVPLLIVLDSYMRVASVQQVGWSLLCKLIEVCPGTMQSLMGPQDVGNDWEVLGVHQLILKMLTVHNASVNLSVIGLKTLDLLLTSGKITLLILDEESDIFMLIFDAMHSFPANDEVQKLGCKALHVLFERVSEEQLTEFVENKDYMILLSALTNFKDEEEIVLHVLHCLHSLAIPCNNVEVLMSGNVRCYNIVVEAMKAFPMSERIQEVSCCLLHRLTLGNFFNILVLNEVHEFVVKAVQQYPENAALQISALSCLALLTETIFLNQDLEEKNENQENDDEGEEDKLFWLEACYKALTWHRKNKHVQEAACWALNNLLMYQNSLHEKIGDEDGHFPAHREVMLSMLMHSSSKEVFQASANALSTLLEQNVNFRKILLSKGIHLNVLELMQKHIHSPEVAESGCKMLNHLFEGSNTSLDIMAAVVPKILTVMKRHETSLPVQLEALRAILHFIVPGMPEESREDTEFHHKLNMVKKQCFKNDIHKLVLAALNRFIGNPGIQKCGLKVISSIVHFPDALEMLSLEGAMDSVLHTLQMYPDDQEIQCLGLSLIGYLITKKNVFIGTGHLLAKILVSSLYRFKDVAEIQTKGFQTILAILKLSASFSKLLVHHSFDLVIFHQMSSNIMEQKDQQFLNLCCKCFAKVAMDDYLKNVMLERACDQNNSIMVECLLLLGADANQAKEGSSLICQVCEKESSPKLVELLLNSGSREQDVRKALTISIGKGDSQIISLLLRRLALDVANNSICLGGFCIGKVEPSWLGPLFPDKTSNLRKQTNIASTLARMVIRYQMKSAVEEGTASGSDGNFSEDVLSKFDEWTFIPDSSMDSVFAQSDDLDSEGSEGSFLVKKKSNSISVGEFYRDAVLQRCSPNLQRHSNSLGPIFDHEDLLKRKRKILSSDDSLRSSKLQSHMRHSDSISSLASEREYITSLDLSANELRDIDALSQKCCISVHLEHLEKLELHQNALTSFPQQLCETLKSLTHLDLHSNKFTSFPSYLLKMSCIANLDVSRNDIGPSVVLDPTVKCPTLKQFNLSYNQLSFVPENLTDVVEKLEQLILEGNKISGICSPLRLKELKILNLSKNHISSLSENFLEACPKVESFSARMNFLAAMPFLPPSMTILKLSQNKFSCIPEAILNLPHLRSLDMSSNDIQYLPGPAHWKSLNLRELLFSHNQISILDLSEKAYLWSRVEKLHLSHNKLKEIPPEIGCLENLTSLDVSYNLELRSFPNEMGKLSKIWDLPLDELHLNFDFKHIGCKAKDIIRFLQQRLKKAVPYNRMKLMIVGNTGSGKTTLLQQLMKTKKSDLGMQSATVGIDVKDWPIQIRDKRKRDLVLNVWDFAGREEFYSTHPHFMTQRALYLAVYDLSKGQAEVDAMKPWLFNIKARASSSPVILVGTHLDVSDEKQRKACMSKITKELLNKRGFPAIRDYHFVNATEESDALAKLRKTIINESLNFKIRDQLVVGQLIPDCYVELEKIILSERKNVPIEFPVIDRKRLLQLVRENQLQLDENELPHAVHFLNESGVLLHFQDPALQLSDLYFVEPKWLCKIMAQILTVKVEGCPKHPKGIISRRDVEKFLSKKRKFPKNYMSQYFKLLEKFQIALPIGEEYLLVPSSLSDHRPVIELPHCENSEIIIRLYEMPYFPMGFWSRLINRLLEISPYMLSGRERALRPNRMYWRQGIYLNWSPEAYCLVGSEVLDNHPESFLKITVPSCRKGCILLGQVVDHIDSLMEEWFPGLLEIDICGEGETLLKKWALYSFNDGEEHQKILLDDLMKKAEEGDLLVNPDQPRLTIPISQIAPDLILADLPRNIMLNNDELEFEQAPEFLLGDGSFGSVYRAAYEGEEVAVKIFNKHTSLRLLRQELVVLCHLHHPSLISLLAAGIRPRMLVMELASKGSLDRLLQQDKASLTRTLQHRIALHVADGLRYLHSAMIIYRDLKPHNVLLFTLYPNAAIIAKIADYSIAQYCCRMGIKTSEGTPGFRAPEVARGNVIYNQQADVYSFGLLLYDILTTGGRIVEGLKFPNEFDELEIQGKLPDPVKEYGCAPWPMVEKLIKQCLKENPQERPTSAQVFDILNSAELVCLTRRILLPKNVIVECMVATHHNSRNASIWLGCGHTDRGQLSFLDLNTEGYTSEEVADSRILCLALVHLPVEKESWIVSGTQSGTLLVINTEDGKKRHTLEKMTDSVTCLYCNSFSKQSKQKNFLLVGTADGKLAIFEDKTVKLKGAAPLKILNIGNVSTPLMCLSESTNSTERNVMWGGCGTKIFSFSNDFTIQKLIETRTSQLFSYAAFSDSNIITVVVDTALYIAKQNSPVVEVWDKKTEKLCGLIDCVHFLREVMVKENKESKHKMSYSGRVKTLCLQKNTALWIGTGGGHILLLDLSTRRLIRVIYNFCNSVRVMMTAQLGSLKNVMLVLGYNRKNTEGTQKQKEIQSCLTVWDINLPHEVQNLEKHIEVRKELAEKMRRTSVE

| SMILES | Ki [nM] |
| --- | --- |
| COc1cc(C(=O)N2CCOCC2)c(F)cc1Nc1ncc(C(F)(F)F)c(N[C@@H]2C[C@@H]2F)n1 [Compound 75, {2-Fluoro-4-[4-((1R,2S)-2-fluoro-cyclopropylamino)-5-trifluoromethyl-pyrimidin-2-ylamino]-5-methoxy-phenyl}-morpholin-4-yl-methanone] | 2.19 |
| CNc1nc(Nc2cc(F)c(C(=O)N3CCOC(C)(C)C3)cc2OC)ncc1C(F)(F)F [Compound 76, (2,2-Dimethyl-morpholin-4-yl)-[2-fluoro-5-methoxy-4-(4-methylamino-5-trifluoromethyl-pyrimidin-2-ylamino)-phenyl]-methanone] | 6.86 |
| CNc1nc(Nc2ccc(C(=O)N3CCOCC3)cc2OC2CC2)ncc1C(F)(F)F [Compound 77, [3-Cyclopropoxy-4-(4-methylamino-5-trifluoromethyl-pyrimidin-2-ylamino)-phenyl]-morpholin-4-yl-methanone] | 1.62 |
| CCNc1nc(Nc2cc(OC(F)F)c(C(=O)N3CCOCC3)cc2Cl)ncc1C(F)(F)F [Compound 78, [5-Chloro-2-difluoromethoxy-4-(4-ethylamino-5-trifluoromethyl-pyrimidin-2-ylamino)-phenyl]-morpholin-4-yl-methanone] | 6.87 |
| CNc1nc(Nc2cc(OC(F)F)c(C(=O)N3CCOCC3)cc2Cl)ncc1C(F)(F)F [Compound 79, [5-Chloro-2-difluoromethoxy-4-(4-methylamino-5-trifluoromethyl-pyrimidin-2-ylamino)-phenyl]-morpholin-4-yl-methanone] | 27.1 |
| CCNc1nc(Nc2cc(F)c(C(=O)N3CC[C@H](F)C3)cc2OC)ncc1C#N [Compound 80, 4-Ethylamino-2-[5-fluoro-4-((S)-3-fluoro-pyrrolidine-1-carbonyl)-2-methoxy-phenylamino]-pyrimidine-5-carbonitrile] | 10.4 |
| CCNc1nc(Nc2cc(OC)c(C(=O)N3CC[C@H](F)C3)cc2F)ncc1C#N [Compound 81, 4-Ethylamino-2-[2-fluoro-4-((S)-3-fluoro-pyrrolidine-1-carbonyl)-5-methoxy-phenylamino]-pyrimidine-5-carbonitrile] | 51.6 |
| CNc1nc(Nc2cc(OC)c(C(=O)N3CCOCC3)c(OC)c2Cl)ncc1C(F)(F)F [Compound 82, [3-Chloro-2,6-dimethoxy-4-(4-methylamino-5-trifluoromethyl-pyrimidin-2-ylamino)-phenyl]-morpholin-4-yl-methanone] | 2.82 |
| CNc1nc(Nc2ccc(C(=O)N3CCOC(C)(C)C3)cc2OC)ncc1C(F)(F)F [Compound 83, (2,2-Dimethyl-morpholin-4-yl)-[3-methoxy-4-(4-methylamino-5-trifluoromethyl-pyrimidin-2-ylamino)-phenyl]-methanone] | 1.74 |
| CNc1nc(Nc2cc(C)c(C(=O)N3CCOCC3)cc2OCCF)ncc1C(F)(F)F [Compound 84, [5-(2-Fluoro-ethoxy)-2-methyl-4-(4-methylamino-5-trifluoromethyl-pyrimidin-2-ylamino)-phenyl]-morpholin-4-yl-methanone] | 2.34 |
| CNc1nc(Nc2cc(OC)c(C(=O)N3CCCC3)cc2OCCF)ncc1C(F)(F)F [Compound 85, [5-(2-Fluoro-ethoxy)-2-methoxy-4-(4-methylamino-5-trifluoromethyl-pyrimidin-2-ylamino)-phenyl]-pyrrolidin-1-yl-methanone] | 4.72 |
| [2H]C1([2H])OC([2H])([2H])C([2H])([2H])N(C(=O)c2cc(Cl)c(Nc3ncc(C(F)(F)F)c(NCC)n3)cc2OC)C1([2H])[2H] [Compound 86, (5-chloro-4-(4-(ethylamino)-5-(trifluoromethyl)pyrimidin-2-ylamino)-2-methoxyphenyl)(perdeuteromorpholino)methanone] | 4.09 |
| COc1cc(C(=O)N2CCOCC2)c(OC)cc1Nc1ncc(Cl)c(OC)n1 [Compound 87, [4-(5-Chloro-4-methoxy-pyrimidin-2-ylamino)-2,5-dimethoxy-phenyl]-morpholin-4-yl-methanone] | 5.5 |
| CNc1nc(Nc2cc(C)c(C(=O)N3CCOCC3)cc2OCF)ncc1C(F)(F)F [Compound 88, [5-Fluoromethoxy-2-methyl-4-(4-methylamino-5-trifluoromethyl-pyrimidin-2-ylamino)-phenyl]-morpholin-4-yl-methanone] | 1.01 |
| CCN(c1ncc(C(F)(F)F)c(NC)n1)c1cc(C)c(C(=O)N2CCOCC2)cc1OCF [Compound 89, {4-[Ethyl-(4-methylamino-5-trifluoromethyl-pyrimidin-2-yl)-amino]-5-fluoromethoxy-2-methyl-phenyl}-morpholin-4-yl-methanone] | 2600 |
| CNc1nc(Nc2cc(OC)c(C(=O)N3CCCC3)cc2OCF)ncc1C(F)(F)F [Compound 90, [5-Fluoromethoxy-2-methoxy-4-(4-methylamino-5-trifluoromethyl-pyrimidin-2-ylamino)-phenyl]-pyrrolidin-1-yl-methanone] | 3.2 |
| COc1cc(C(=O)N2CCOCC2)c(F)cc1Nc1ncc(C(F)(F)F)c(NC2CCC2)n1 [Compound 91, [4-(4-Cyclobutylamino-5-trifluoromethyl-pyrimidin-2-ylamino)-2-fluoro-5-methoxy-phenyl]-morpholin-4-yl-methanone] | 0.31 |

| SMILES | Ki [nM] |
| --- | --- |
| CNc1nc(Nc2cc(F)c(C(=O)N3CCOCC3)cc2C)ncc1C(F)(F)F [Compound 92, [2-Fluoro-5-methyl-4-(4-methylamino-5-trifluoromethyl-pyrimidin-2-ylamino)-phenyl]-morpholin-4-yl-methanone] | 3.64 |
| COc1cc(C(=O)N2CCOCC2)c(C)cc1Nc1ncc(Cl)c(OC)n1 [Compound 93, [4-(5-Chloro-4-methoxy-pyrimidin-2-ylamino)-5-methoxy-2-methyl-phenyl]-morpholin-4-yl-methanone] | 5.55 |
| CCOc1nc(Nc2cc(C)c(C(=O)N3CCOCC3)cc2OC)ncc1Cl [Compound 94, [4-(5-Chloro-4-ethoxy-pyrimidin-2-ylamino)-5-methoxy-2-methyl-phenyl]-morpholin-4-yl-methanone] | 2.97 |
| CNc1nc(Nc2cc(F)c(C(=O)N3CCCC3)cc2OCF)ncc1C(F)(F)F [Compound 95, [2-Fluoro-5-fluoromethoxy-4-(4-methylamino-5-trifluoromethyl-pyrimidin-2-ylamino)-phenyl]-pyrrolidin-1-yl-methanone] | 6.93 |
| COc1cc(C(=O)N2CC[C@H](F)C2)ccc1Nc1ncc(C#N)c(NC2CC2)n1 [Compound 96, 4-Cyclopropylamino-2-[4-((S)-3-fluoro-pyrrolidine-1-carbonyl)-2-methoxy-phenylamino]-pyrimidine-5-carbonitrile] | 3.13 |
| CCNc1nc(Nc2cc(C)c(C(=O)N3CC[C@H](F)C3)cc2OC)ncc1C#N [Compound 97, 4-Ethylamino-2-[4-((S)-3-fluoro-pyrrolidine-1-carbonyl)-2-methoxy-5-methyl-phenylamino]-pyrimidine-5-carbonitrile] | 1.21 |
| CCNc1nc(Nc2ccc(C(=O)N3CC[C@H](F)C3)cc2F)ncc1C#N [Compound 98, 4-Ethylamino-2-[2-fluoro-4-((S)-3-fluoro-pyrrolidine-1-carbonyl)-phenylamino]-pyrimidine-5-carbonitrile] | 17.5 |
| CNc1nc(Nc2cc(C)c(C(=O)N3CCOCC3)cc2OC(C)C)ncc1C(F)(F)F [Compound 99, [5-Isopropoxy-2-methyl-4-(4-methylamino-5-trifluoromethyl-pyrimidin-2-ylamino)-phenyl]-morpholin-4-yl-methanone] | 3.66 |
| CCOc1cc(C(=O)N2CCOCC2)c(C)cc1Nc1ncc(C(F)(F)F)c(NC)n1 [Compound 100, [5-Ethoxy-2-methyl-4-(4-methylamino-5-trifluoromethyl-pyrimidin-2-ylamino)-phenyl]-morpholin-4-yl-methanone] | 1.05 |
| CNc1nc(Nc2cc(C)c(C(=O)N3CCCC3)cc2OCF)ncc1C(F)(F)F [Compound 101, [5-Fluoromethoxy-2-methyl-4-(4-methylamino-5-trifluoromethyl-pyrimidin-2-ylamino)-phenyl]-pyrrolidin-1-yl-methanone] | 0.685 |
| O=C(c1cc(Cl)c(Nc2ncc(C(F)(F)F)c(NC3CC3)n2)cc1OCF)N1CCOCC1 [Compound 102, [5-Chloro-4-(4-cyclopropylamino-5-trifluoromethyl-pyrimidin-2-ylamino)-2-fluoromethoxy-phenyl]-morpholin-4-yl-methanone] | 708 |
| CCNc1nc(Nc2cc(C)c(C(=O)N3CCOCC3)cc2F)ncc1C(F)(F)F [Compound 103, [4-(4-Ethylamino-5-trifluoromethyl-pyrimidin-2-ylamino)-5-fluoro-2-methyl-phenyl]-morpholin-4-yl-methanone] | 1.23 |
| [2H]C1([2H])OC([2H])([2H])C([2H])([2H])N(C(=O)c2cc(OC)c(Nc3ncc(C(F)(F)F)c(NC)n3)cc2C)C1([2H])[2H] [Compound 104, (5-methoxy-2-methyl-4-(4-(methylamino)-5-(trifluoromethyl)pyrimidin-2-ylamino)phenyl)(perdeuteromorpholino)methanone] | 0.342 |
| CCNc1nc(Nc2cc(C)c(C(=O)NCC(C)(C)O)cc2OC)ncc1C(F)(F)F [Compound 105, 4-(4-Ethylamino-5-trifluoromethyl-pyrimidin-2-ylamino)-N-(2-hydroxy-2-methyl-propyl)-5-methoxy-2-methyl-benzamide] | 0.31 |
| CCNc1nc(Nc2cc(F)c(C(=O)NC(C)(C)CO)cc2OC)ncc1C(F)(F)F [Compound 106, 4-(4-Ethylamino-5-trifluoromethyl-pyrimidin-2-ylamino)-2-fluoro-N-(2-hydroxy-1,1-dimethyl-ethyl)-5-methoxy-benzamide] | 0.406 |
| CCNc1nc(Nc2cc(C)c(C(=O)N3CC[C@H](F)C3)cc2Cl)ncc1C#N [Compound 107, 2-[2-Chloro-4-((S)-3-fluoro-pyrrolidine-1-carbonyl)-5-methyl-phenylamino]-4-ethylamino-pyrimidine-5-carbonitrile] | 9.12 |
| CCNc1nc(Nc2ccc(C(=O)N3CC[C@H](F)C3)cc2Cl)ncc1C#N [Compound 108, 2-[2-Chloro-4-((S)-3-fluoro-pyrrolidine-1-carbonyl)-phenylamino]-4-ethylamino-pyrimidine-5-carbonitrile] | 28.9 |
